Where two headings read alike, the source gives them in different places. Blank lines part the entries; values can stand above or below the molecule they belong to.
What was measured:
TRKA = TRKA (Homo sapiens (Human), UniProt P04629); assay: Radio-tagged HotSpot kinase assay, TRKA;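 also: kinase activity measured through incorporation of 33P from labelled ATP into substrate, 120 min at room temperature, relative to a DMSO-only blank control, reported as inhibition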
Experimental: (§2) Inhibition of protein kinase activity by compounds was carried out on the Radio-tagged HotSpot kinase experimental platform of Reaction Biology Corporation. Fresh reaction solution (20 mM HEPESpH 7.5, 10 mM MgCl2, 1 mM EGTA, 0.02% Brij35, 0.02 mg/ml BSA, 0.1 mM Na3VO4, 2 mM DTT, 1% DMSO) containing corresponding substrates was prepared, cofactor and kinase to be tested were added into the above solution and mixed gently. Echo550 pipetting system was used to add the test compound DMSO solution to each well (the blank control group was added with the corresponding volume of DMSO), then 33P-ATP (with a final specific activity of 0.01 μCi/μL) was added to start the reaction. The reaction solution was incubated at room temperature for 120 minutes.

Ba/F3-CD74-ROS1 = assay: Inhibition of cell proliferation (CellTiter-Glo), Ba/F3-CD74-ROS1; assay type: cell-based; details: 72 hours
Experimental: (§1) The experiment of inhibiting cell proliferation by compounds was carried out in Hefei Zhongkeprecedo Biomedical Technology Co., Ltd. The Ba/F3 engineered cell line stably transfected with different kinase genes was recovered with RPMI 1640 medium (Biological Industries, Israel)+10% fetal bovine serum (Biological Industries, Israel)+1% double antibody (Penicillin Streptomycin solution, Coring, USA) and cultivated two generations. The logarithmic growth phase cell suspension was taken, and 2000 cells/well were inoculated on 96-well white cell culture plate (Corning 3917, NY, USA) with a volume of 95 μL per well. 5 μL of 20×DMSO solution of the compound to be tested was added into the culture plate containing 95 μL of cell suspension. The blank control group was added with corresponding volume of DMSO, mixed well, and incubated in a 5% CO2 incubator at 37° C. for 72 hours. CellTiter-Glo was used to detect cell viability.

Ba/F3-LMNA-NTRK1 = assay: Inhibition of cell proliferation (CellTiter-Glo), Ba/F3-LMNA-NTRK1; assay type: cell-based; details: 72 hours
Experimental: as §1

Ba/F3-LMNA-NTRK1-G595R = assay: Inhibition of cell proliferation (CellTiter-Glo), Ba/F3-LMNA-NTRK1-G595R; assay type: cell-based; details: 72 hours
Experimental: as §1

Ba/F3-CD74-ROS1-G2032R = assay: Inhibition of cell proliferation (CellTiter-Glo), Ba/F3-CD74-ROS1-G2032R; assay type: cell-based; details: 72 hours;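 also: Ba/F3 cell line expressing the CD74-ROS1 fusion with G2032R mutation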
Experimental: as §1

TRKA (G677C) = TRKA (G677C) (Homo sapiens, UniProt P04629, G667C); assay: Radio-tagged HotSpot kinase assay, TRKA (G677C); assay type: biochemical; details: 33P-ATP, 120 min, room temperature
Experimental: as §2

ROS1 (G2032R) = ROS1 (G2032R) (Homo sapiens (Human), UniProt P08922, G2032R); assay: Radio-tagged HotSpot kinase assay, ROS1 (G2032R)
Experimental: as §2

TRKB = TRKB (Homo sapiens (Human), UniProt Q16620); assay: Radio-tagged HotSpot kinase assay, TRKB; assay type: biochemical; details: 33P-ATP, 120 min, room temperature
Experimental: as §2

TRKA (G595R) = TRKA (G595R) (Homo sapiens (Human), UniProt P04629, G595R); assay: Radio-tagged HotSpot kinase assay, TRKA (G595R)
Experimental: as §2

ROS1 = ROS1 (Homo sapiens (Human), UniProt P08922); assay: Radio-tagged HotSpot kinase assay, ROS1
Experimental: as §2

TRKC = TRKC (Homo sapiens (Human), UniProt Q16288); assay: Radio-tagged HotSpot kinase assay, TRKC; assay type: biochemical; details: 33P-ATP, 120 min, room temperature
Experimental: as §2

[1] = read-out: TRKA (IC50/nM), 33P-ATP, 120 min, room temperature
[2] = read-out: ROS1 (G2032R) (IC50/nM), 33P-ATP, 120 min, room temperature
[3] = read-out: TRKA (G595R) (IC50/nM), 33P-ATP, 120 min, room temperature
[4] = read-out: ROS1 (IC50/nM), 33P-ATP, 120 min, room temperature

Sequence of TRKB (Q16620 32-822): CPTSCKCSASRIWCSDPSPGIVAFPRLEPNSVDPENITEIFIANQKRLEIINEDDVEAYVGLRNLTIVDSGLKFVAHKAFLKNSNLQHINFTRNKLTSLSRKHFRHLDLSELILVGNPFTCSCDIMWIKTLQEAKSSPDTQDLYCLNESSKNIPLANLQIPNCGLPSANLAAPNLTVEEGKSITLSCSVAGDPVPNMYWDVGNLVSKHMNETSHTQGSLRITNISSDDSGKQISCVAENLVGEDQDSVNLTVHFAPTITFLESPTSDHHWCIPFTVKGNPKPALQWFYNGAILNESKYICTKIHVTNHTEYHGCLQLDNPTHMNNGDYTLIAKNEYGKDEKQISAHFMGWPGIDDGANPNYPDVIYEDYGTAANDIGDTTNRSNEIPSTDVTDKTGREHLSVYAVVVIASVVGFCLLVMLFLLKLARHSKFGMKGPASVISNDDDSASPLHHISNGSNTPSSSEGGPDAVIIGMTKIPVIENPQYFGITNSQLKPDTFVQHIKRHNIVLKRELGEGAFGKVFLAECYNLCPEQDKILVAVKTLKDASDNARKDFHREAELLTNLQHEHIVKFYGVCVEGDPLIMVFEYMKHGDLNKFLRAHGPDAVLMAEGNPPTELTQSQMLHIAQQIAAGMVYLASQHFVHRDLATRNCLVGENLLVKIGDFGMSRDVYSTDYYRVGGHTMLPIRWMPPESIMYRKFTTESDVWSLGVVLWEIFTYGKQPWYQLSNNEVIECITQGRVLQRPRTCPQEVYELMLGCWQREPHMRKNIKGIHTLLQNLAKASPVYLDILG
Sequence of ROS1 (P08922 28-2347): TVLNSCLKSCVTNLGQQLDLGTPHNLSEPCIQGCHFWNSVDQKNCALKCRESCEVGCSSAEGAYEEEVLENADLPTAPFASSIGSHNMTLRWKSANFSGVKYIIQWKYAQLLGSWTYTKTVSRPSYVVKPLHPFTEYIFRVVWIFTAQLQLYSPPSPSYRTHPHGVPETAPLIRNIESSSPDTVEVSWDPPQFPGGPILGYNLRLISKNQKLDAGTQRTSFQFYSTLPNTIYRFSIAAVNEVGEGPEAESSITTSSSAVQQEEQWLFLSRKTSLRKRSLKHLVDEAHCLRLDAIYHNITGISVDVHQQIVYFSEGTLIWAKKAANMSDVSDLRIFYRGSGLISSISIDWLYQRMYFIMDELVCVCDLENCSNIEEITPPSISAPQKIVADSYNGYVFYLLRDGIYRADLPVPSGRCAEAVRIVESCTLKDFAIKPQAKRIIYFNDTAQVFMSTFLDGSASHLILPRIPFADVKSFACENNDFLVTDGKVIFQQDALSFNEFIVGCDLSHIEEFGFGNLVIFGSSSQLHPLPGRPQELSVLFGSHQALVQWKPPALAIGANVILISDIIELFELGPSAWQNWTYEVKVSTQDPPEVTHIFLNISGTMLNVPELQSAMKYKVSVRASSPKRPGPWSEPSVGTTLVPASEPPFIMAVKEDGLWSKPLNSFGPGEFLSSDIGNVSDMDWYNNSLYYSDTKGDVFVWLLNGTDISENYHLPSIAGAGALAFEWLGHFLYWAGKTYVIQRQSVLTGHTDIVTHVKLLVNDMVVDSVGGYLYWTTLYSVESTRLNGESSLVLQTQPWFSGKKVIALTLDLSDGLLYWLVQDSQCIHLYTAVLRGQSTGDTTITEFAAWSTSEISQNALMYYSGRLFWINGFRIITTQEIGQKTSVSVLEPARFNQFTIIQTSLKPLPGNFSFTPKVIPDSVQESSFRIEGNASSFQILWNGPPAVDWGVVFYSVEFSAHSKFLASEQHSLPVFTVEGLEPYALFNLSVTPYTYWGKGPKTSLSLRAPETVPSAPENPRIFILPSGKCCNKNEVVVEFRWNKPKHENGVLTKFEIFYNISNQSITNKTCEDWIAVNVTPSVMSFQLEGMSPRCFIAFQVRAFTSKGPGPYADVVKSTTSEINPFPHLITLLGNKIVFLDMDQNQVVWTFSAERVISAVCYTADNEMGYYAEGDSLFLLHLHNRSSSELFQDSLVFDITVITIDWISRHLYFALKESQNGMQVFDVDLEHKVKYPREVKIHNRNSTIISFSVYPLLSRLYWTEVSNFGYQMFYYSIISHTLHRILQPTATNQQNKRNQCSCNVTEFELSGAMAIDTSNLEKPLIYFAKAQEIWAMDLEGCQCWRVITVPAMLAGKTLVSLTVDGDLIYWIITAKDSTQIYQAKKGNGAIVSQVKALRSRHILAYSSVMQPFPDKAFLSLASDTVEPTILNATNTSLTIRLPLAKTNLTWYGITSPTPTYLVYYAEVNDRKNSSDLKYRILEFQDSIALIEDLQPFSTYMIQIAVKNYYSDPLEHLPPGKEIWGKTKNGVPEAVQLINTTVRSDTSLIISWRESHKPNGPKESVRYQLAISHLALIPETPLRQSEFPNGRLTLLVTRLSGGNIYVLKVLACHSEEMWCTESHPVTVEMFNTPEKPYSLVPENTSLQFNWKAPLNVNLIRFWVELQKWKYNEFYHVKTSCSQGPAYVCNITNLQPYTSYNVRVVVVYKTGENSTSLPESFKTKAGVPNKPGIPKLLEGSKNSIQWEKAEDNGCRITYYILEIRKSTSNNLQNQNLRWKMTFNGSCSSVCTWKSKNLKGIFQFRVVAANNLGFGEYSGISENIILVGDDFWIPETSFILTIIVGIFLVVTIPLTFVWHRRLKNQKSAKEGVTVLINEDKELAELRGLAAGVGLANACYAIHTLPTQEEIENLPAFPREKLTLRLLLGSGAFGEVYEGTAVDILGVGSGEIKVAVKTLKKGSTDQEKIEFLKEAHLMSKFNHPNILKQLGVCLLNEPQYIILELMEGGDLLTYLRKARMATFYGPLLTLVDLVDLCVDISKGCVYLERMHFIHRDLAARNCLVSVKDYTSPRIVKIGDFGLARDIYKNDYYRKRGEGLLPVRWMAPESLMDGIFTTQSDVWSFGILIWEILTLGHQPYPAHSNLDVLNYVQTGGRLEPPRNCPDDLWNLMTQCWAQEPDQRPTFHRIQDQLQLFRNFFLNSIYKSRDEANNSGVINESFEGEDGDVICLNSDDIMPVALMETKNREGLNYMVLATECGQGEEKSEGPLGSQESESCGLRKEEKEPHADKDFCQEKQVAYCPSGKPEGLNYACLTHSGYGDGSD
Sequence of TRKC (Q16288 32-839): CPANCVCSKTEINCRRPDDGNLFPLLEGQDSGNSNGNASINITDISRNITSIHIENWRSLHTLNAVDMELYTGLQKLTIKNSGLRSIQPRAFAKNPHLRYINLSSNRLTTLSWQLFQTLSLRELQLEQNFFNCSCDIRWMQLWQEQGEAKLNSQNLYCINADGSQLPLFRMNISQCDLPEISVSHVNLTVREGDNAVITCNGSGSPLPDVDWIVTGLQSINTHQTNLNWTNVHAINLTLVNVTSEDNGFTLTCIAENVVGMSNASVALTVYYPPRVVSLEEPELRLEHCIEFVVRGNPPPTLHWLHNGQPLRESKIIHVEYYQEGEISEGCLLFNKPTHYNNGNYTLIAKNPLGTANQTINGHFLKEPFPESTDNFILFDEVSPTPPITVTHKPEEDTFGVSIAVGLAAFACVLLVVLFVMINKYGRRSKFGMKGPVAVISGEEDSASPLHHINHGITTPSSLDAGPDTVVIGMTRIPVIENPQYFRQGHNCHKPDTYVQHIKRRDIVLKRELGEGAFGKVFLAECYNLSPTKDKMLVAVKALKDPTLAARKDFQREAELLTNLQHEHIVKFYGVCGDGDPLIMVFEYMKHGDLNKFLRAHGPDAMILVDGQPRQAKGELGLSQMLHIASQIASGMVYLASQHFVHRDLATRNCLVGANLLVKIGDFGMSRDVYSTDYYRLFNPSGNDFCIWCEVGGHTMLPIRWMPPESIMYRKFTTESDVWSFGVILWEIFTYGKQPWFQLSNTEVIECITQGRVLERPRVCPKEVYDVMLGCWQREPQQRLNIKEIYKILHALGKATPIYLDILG
Sequence of TRKA (P04629 33-796): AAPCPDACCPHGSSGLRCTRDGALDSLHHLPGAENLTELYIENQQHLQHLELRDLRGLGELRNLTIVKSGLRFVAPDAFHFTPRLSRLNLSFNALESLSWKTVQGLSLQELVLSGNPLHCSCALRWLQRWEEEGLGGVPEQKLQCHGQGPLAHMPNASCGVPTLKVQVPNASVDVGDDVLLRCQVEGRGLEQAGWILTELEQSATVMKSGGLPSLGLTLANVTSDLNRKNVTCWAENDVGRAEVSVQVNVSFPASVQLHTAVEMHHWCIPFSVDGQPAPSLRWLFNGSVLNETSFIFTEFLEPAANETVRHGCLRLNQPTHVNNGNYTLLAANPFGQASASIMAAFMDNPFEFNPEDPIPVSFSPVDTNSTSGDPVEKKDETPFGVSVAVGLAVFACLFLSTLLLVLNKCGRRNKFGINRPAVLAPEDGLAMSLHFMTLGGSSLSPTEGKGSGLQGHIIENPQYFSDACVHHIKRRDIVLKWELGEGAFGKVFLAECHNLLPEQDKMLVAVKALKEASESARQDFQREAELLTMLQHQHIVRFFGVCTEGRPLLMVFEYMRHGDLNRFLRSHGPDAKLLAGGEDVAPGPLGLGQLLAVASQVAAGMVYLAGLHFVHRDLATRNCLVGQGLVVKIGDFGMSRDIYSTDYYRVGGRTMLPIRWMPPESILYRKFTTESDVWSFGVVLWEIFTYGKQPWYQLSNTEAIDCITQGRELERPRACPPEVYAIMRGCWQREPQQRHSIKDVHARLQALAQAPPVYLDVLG
Sequence of TRKA (G677C) (P04629 33-796 G667C limits assumed): as the sequence (P04629 33-796) above, with G635C counted along it
Sequence of TRKA (G595R) (P04629 33-796 G595R): as the sequence (P04629 33-796) above, with G563R counted along it
Sequence of ROS1 (G2032R) (P08922 28-2347 G2032R): as the sequence (P08922 28-2347) above, with G2005R counted along it

Compound: COc1ccc(F)cc1[C@@H](C)Nc1ccn2ncc(C3=NOC(C)(c4ccccn4)N3)c2n1 (stereo partly drawn) [Example 48]
IC50 (TRKA (G677C)): 50 to 500 nM

Compound: [2H]C([2H])([2H])Oc1ccc(F)cc1[C@@H](C)Nc1nc2c(C3=NOC(C)(C)N3)cnn2cc1F [Example 6]
IC50 (Ba/F3-CD74-ROS1): 6 nM | IC50 (Ba/F3-CD74-ROS1-G2032R): 43.7 nM | IC50 (Ba/F3-LMNA-NTRK1): 2 nM | IC50 (Ba/F3-LMNA-NTRK1-G595R): 2.8 nM

Compound: COc1ccc(F)cc1[C@@H](C)Nc1nc2c(C3=NOC(C)(C)N3)cnn2cc1F [Example 20]
IC50 (Ba/F3-CD74-ROS1-G2032R): 43.6 nM

Compound: COc1ccc(F)cc1[C@@H](C)Nc1ccn2ncc(C3=NOC4(CCOCC4)N3)c2n1 [Example 46]
IC50 (TRKA (G677C)): 5 to 50 nM

Compound: CCOCC1(C)NC(c2cnn3ccc(N[C@H](C)c4cc(F)ccc4O)nc23)=NO1 (stereo partly drawn) [Example 66]
IC50 (ROS1 (G2032R); [2]): < 0.5 nM | IC50 (TRKB): 0.5 to 5 nM | IC50 (TRKA (G595R)): 0.5 to 5 nM | IC50 (ROS1; [4]): < 0.5 nM | IC50 (TRKC): < 0.5 nM | IC50 (TRKA): 0.5 to 5 nM

Compound: COc1ccc(F)cc1[C@@H](C)Nc1ccn2ncc(C3=NOC(C)(c4ccc(F)cc4)N3)c2n1 (stereo partly drawn) [Example 47]
IC50 (TRKA (G677C)): 50 to 500 nM

Compound: CCCCC1NC(c2cnn3ccc(N[C@H](C)c4cc(F)ccc4O)nc23)=NO1 (stereo partly drawn) [Example 69]
IC50 (ROS1 (G2032R); [2]): < 0.5 nM | IC50 (TRKB): < 0.5 nM | IC50 (TRKA (G595R); [3]): < 0.5 nM | IC50 (ROS1; [4]): < 0.5 nM | IC50 (TRKC): < 0.5 nM | IC50 (TRKA; [1]): < 0.5 nM

Compound: C[C@@H](Nc1ccn2ncc(C3=NCC(C)(C)N3)c2n1)c1cc(F)ccc1F [Example 65]
IC50 (ROS1 (G2032R); [2]): < 0.5 nM | IC50 (TRKB): 0.5 to 5 nM | IC50 (TRKA (G595R)): 0.5 to 5 nM | IC50 (ROS1; [4]): < 0.5 nM | IC50 (TRKC): < 0.5 nM | IC50 (TRKA): 0.5 to 5 nM

Compound: Cc1nc(-c2cnn3ccc(N[C@H](C)c4cc(F)ccc4O)nc23)no1 [Example 67]
IC50 (ROS1 (G2032R)): 5 to 50 nM | IC50 (TRKB): 0.5 to 5 nM | IC50 (TRKA (G595R)): 5 to 50 nM | IC50 (ROS1): 0.5 to 5 nM | IC50 (TRKC): 0.5 to 5 nM | IC50 (TRKA): 5 to 50 nM

Compound: COc1ccc(F)cc1[C@@H](C)Nc1ccn2ncc(C3=NOC4(CCCCC4)N3)c2n1 [Example 45]
IC50 (TRKA (G677C)): 5 to 50 nM

Compound: CCCC1(C)NC(c2cnn3ccc(N[C@H](C)c4cc(F)ccc4OC)nc23)=NO1 (stereo partly drawn) [Example 19]
IC50 (Ba/F3-CD74-ROS1-G2032R): 140 nM

Results, then the molecule that gave them:

IC50 (TRKA): 50 to 500 nM
Compound: COc1ccc(F)cc1[C@H](C)Nc1ccn2ncc(C3=NOC(C)(C)N3)c2n1 [Example 41]

IC50 (Ba/F3-CD74-ROS1): 52.1 nM | IC50 (Ba/F3-LMNA-NTRK1): 45.8 nM | IC50 (Ba/F3-LMNA-NTRK1-G595R): 161 nM
Compound: COc1cc(F)c(F)cc1[C@@H](C)Nc1ccn2ncc(C3=NOC(C)(C)N3)c2n1 [Example 32]

IC50 (Ba/F3-CD74-ROS1): 8.4 nM | IC50 (Ba/F3-CD74-ROS1-G2032R): 81.1 nM | IC50 (Ba/F3-LMNA-NTRK1): 18.2 nM | IC50 (Ba/F3-LMNA-NTRK1-G595R): 30.1 nM
Compound: C[C@@H](Nc1ccn2ncc(C3=NOC(C)(C)N3)c2n1)c1cc(F)cc2ccccc12 [Example 53]

IC50 (Ba/F3-LMNA-NTRK1-G595R): 113 nM
Compound: COc1c(F)ccc(F)c1[C@@H](C)Nc1ccn2ncc(C3=NOC(C)(C)N3)c2n1 [Example 2]

IC50 (Ba/F3-LMNA-NTRK1-G595R): 458 nM
Compound: COc1ccc(F)c(Cl)c1[C@@H](C)Nc1ccn2ncc(C3=NOC(C)(C)N3)c2n1 [Example 1]

IC50 (TRKA; [1]): > 500 nM
Compound: C[C@H](Nc1ccn2ncc(C3=NOC(C)(C)N3)c2n1)c1cc(F)ccc1Br [Example 24]

IC50 (ROS1 (G2032R); [2]): < 0.5 nM | IC50 (TRKB): < 0.5 nM | IC50 (TRKA (G595R); [3]): < 0.5 nM | IC50 (ROS1; [4]): < 0.5 nM | IC50 (TRKC): < 0.5 nM | IC50 (TRKA; [1]): < 0.5 nM
Compound: C[C@@H](Nc1ccn2ncc(C3=NOC(C)(C)N3)c2n1)c1cc(F)ccc1O [Example 68]

IC50 (TRKA): 50 to 500 nM
Compound: CC(Nc1ccn2ncc(C3=NOC(C)(C)N3)c2n1)c1ccc(F)cc1 (racemic) [Example 25 racemate]

IC50 (Ba/F3-LMNA-NTRK1-G595R): 387 nM
Compound: COc1ccc(OC)c([C@@H](C)Nc2ccn3ncc(C4=NOC(C)(C)N4)c3n2)c1 [Example 29]

IC50 (TRKA): 50 to 500 nM
Compound: C[C@@H](Nc1ccn2ncc(C3=NOC(C)(C)N3)c2n1)c1ccc(F)cc1 [Example 25]

IC50 (Ba/F3-CD74-ROS1-G2032R): 54.4 nM | IC50 (Ba/F3-LMNA-NTRK1-G595R): 3.5 nM
Compound: C[C@@H](Nc1ccn2ncc(C3=NOC(C)(C)N3)c2n1)c1cccc(F)c1 [Example 31]

IC50 (TRKA): 50 to 500 nM
Compound: Cc1ccc(F)cc1[C@H](C)Nc1ccn2ncc(C3=NOC(C)(C)N3)c2n1 [Example 43]

IC50 (ROS1 (G2032R); [2]): < 0.5 nM | IC50 (TRKB): 0.5 to 5 nM | IC50 (TRKA (G595R)): 0.5 to 5 nM | IC50 (ROS1; [4]): < 0.5 nM | IC50 (TRKC): < 0.5 nM | IC50 (TRKA): 0.5 to 5 nM
Compound: C[C@H](Nc1ccn2ncc(C3=NOC(C)(C)N3)c2n1)c1cc(F)cc2ccccc12 [Example 54]

— US12435089B2, “3-oxadiazolyl substituted pyrazolo[1,5,a]pyrimidines for ROS1, NTRK, and ALK mediated diseases” (TYK MEDICINES, INC., priority 2019, dated 2025)
